From paper PMC8273159, “In Vivo Behavior of the Antibacterial Peptide Cyclo[RRRWFW], Explored Using a 3-Hydroxychromone-Derived Fluorescent Amino Acid” (Frontiers in Chemistry, 2021)
In brackets after ≈: the same amount, converted by molar mass. Numbered stars: 1 amine (or outer) side, 2 acyl side, 3 side chain; on linkers, the order of the positions; unused ones are H or OH. Square brackets hold non-standard residues; d marks the D form. Peptide text beside a SMILES is read from it. X1 = O=C([C@H](Cc1ccc2oc(-c3ccco3)c(O)c(=O)c2c1)N[*:1])[*:2]

Columns and labels:
[1] = tested on: Bacillus spizizenii (DSM 347); format: cell-based; settings: DSM 347, 20 h
Procedure: (§1) Bacillus spizizenii (DSM 347) and Escherichia coli (DSM 1116) were purchased from the German Collection of Microorganisms and Cell Cultures. The bacterial strains were maintained frozen at −80°C using a bacterial Cryobank System (Mast Diagnostica). To refresh bacterial cells on single glass beads, they were grown overnight in Müller-Hinton (MH) medium, and colonies were obtained by streaking on MH agar. Then, colony cells were used to inoculate MH broth up to OD = 0.02 and grew at 37°C overnight. These overnight cultures were used to inoculate the test culture, which was grown for 3–4 h until it reached exponential growth. HeLa (ECACC 93021013) and HEK293 (ECACC 85120602) cells were purchased from […] and were routinely cultured in Roswell Park Memorial Institute (RPMI) 1640 medium or Dulbecco’s modified Eagle medium (DMEM) supplemented with 10% fetal calf serum (FCS) and 1% penicillin/streptomycin, respectively. Cells were passaged every 2–3 days and used until passage 35. All animal cell types were cultured at 37 °C in a 5% CO2 atmosphere and tested negative for mycoplasma.
(§2) The bacteriostatic activity of the peptides was characterized by determining minimal culture growth inhibitory concentrations (MICs) in planktonic cultures. Serial twofold dilutions of each peptide (in-well concentration range: 128 μg/ml to […]) were prepared in MH broth and aliquoted into round-bottom 96-well microtiter plates (Sarstedt). Each well was inoculated with a standardized inoculum to achieve a final test concentration of approximately 10^6 cells/ml. […] The measurements were repeated twice with three replicates each time.

[2] = tested on: Escherichia coli (DSM 1116); format: cell-based; settings: DSM 1116, 20 h
Procedure: as §1, §2

[3] = tested on: human erythrocyte suspension; test: Hemolysis assay (hemoglobin release); format: cell-based; settings: Tris-HCl pH 7.6, 37°C, 30 min
Source text: All chemicals were purchased from Sigma-Aldrich, Iris Biotech or Biosolve and were used without further purification. Ultrapure deionized (MilliQ, Millipore) water was used to prepare aqueous solutions and mixtures. Solvents for peptide purification and optical spectroscopy were of HPLC grade and were degassed before use. Culture media and supplements for animal cells were from Thermo Fisher, those for bacterial culturing were from Becton, and those for zebrafish embryo handling were freshly prepared. Citrate phosphate dextrose-stabilized blood bags with erythrocyte suspensions of healthy donors for hemolysis assays were obtained from the blood bank of the Karlsruhe municipal hospital.
Hemolytic activity was examined using the same serial twofold dilution concentrations as for the MIC assay. […] The tubes were centrifuged at 13,000 rpm for 10 min to pellet the cells, and the absorbance at 540 nm was recorded against a negative control (cells without peptide, accounting for autohaemolysis). The lysis percentage was calculated relative to lysis levels induced by 1% (v/v) Triton X-100. The absorbance measurements were repeated five times, and the averaged values were used.

[4] = Analytical C18 HPLC retention time as measure of overall hydrophobicity; format: physicochemical; settings: chromatographic, C18 phase (Vydac), water/acetonitrile with 0.1% TFA, 1% B/min gradient, column 40°C; used to assess overall hydrophobicity
Procedure: The peptides were purified (>95%) by reversed-phase high-performance liquid chromatography (HPLC) employing C18 stationary phase columns (Vydac) and TFA-supplemented (0.1% v/v) water/acetonitrile gradients (4% eluent B/min) without temperature control on a Jasco HPLC system equipped with a diode array detector. Analytical chromatography was performed using the same stationary/mobile phase conditions, employing temperature control (column temperature 40°C) and shallower gradients (1% eluent B/min). All peptides and individual HPLC fractions were characterized by matrix-assisted laser desorption/ionization time-of-flight mass spectrometry (MALDI-TOF MS) using a Bruker Autoflex III instrument in positive reflector detection mode and with α-cyano-4-hydroxycinnamic acid as a matrix. From pure peptide powders, stock solutions were prepared (1 mg/ml) in 30% aqueous acetonitrile and stored at −80°C. For spectroscopy, imaging and bioactivity measurements, aliquots from these solutions were taken a day before the experiment, and peptide samples containing the necessary amount of peptide dry material were obtained by lyophilization overnight.

MIC B. spizizenii [1] | MIC E. coli [2] | RT (apparent retention time) [4] | SMILES | death of erythrocytes (hemolysis) ([3]; 30 µM peptide, absorbance 540 nm, relative to 1% Triton X-100, five readings averaged) | hemolytic activity, comparison in words ([3]; human erythrocytes, relative to 1% Triton X-100)
14.6 µM (≈ 16 µg/mL) | 29.1 µM (≈ 32 µg/mL) |  | N=C(N)NCCC[C@@H]1NC(=O)[C@H](CCCNC(=N)N)NC(=O)[C@H](Cc2c[nH]c3ccccc23)NC(=O)[C@H](Cc2ccccc2)NC(=O)[C@H](Cc2ccc3oc(-c4ccco4)c(O)c(=O)c3c2)NC(=O)[C@H](CCCNC(=N)N)NC1=O [cRW-W^1/FHC] (cyclo(FWRRR[X1])) |  | 
14.6 µM (≈ 16 µg/mL) | 29.1 µM (≈ 32 µg/mL) | 11 min | N=C(N)NCCC[C@@H]1NC(=O)[C@H](CCCNC(=N)N)NC(=O)[C@H](Cc2ccc3oc(-c4ccco4)c(O)c(=O)c3c2)NC(=O)[C@H](Cc2ccccc2)NC(=O)[C@H](Cc2c[nH]c3ccccc23)NC(=O)[C@H](CCCNC(=N)N)NC1=O [cRW-W^3/FHC] (cyclo(F[X1]RRRW)) |  | 
4.0 µM (≈ 3.95 µg/mL) | 8.1 µM (≈ 8 µg/mL) | 9 min | N=C(N)NCCC[C@@H]1NC(=O)[C@H](CCCNC(=N)N)NC(=O)[C@H](Cc2c[nH]c3ccccc23)NC(=O)[C@H](Cc2ccccc2)NC(=O)[C@H](Cc2c[nH]c3ccccc23)NC(=O)[C@H](CCCNC(=N)N)NC1=O [cWFW, cyclo[RRRWFW]] (cyclo(FWRRRW)) |  | 

SMILES | MIC B. spizizenii [1] | MIC E. coli [2] | RT (apparent retention time) [4] | death of erythrocytes (hemolysis) ([3]; 30 µM peptide, absorbance 540 nm, relative to 1% Triton X-100, five readings averaged) | hemolytic activity, comparison in words ([3]; human erythrocytes, relative to 1% Triton X-100)
N=C(N)NCCC[C@@H]1NC(=O)[C@H](CCCNC(=N)N)NC(=O)[C@H](Cc2c[nH]c3ccccc23)NC(=O)[C@H](Cc2ccc3oc(-c4ccco4)c(O)c(=O)c3c2)NC(=O)[C@H](Cc2c[nH]c3ccccc23)NC(=O)[C@H](CCCNC(=N)N)NC1=O [cRW-F^2/FHC] (cyclo(RRRW[X1]W)) | 14.0 µM (≈ 15.9 µg/mL) | 28.1 µM (≈ 32 µg/mL) |  | > 50% | the most hemolytic
